Columns and labels:
Format in all cases: cell-based
[1] = system: LPS-induced NO production (LPS로 유도되는 NO의 생성); assay: Anti-inflammatory effect assay of peak 2 anthocyanin: inhibition of LPS-induced NO production; conditions: p<0.05
[2] = system: LPS-induced NO production in RAW 264.7 (RAW 264.7에서 LPS로 유도된 NO 생성); assay: Inhibition of LPS-induced NO production in RAW 264.7; conditions: p<0.05
[3] = system: HepG2; assay: Protective effect against hydrogen peroxide (H2O2, 0.9 mM)-induced oxidative stress in HepG2; conditions: HepG2, H2O2 0.9mM, p<0.05

| Molecule | inhibition at 1 µM ([1]; 1uM) [%] | inhibition at 10 µM ([1]; 10uM) [%] | inhibition of LPS-induced NO production [2] | cell protective effect against H2O2-induced oxidative stress [3] |
| --- | --- | --- | --- | --- |
| COc1cc(-c2[o+]c3cc(O)cc(O[C@@H]4O[C@H](CO)[C@@H](O)[C@H](O)[C@H]4O)c3cc2O[C@@H]2O[C@H](CO)[C@@H](O)[C@H](O)[C@H]2O[C@@H]2O[C@H](CO)[C@@H](O)[C@H](O)[C@H]2O)ccc1O (single isomer, unassigned) [Peak 2, Peonidin-3-sophoroside-5-glucoside] | 8 | 15 | 유의적으로 저해하였다 | – |
| COc1cc(-c2[o+]c3cc(O)cc(O[C@@H]4O[C@H](CO)[C@@H](O)[C@H](O)[C@H]4O)c3cc2O[C@@H]2O[C@H](COC(=O)/C=C/c3ccc(O)c(O)c3)[C@@H](O)[C@H](O)[C@H]2O[C@@H]2O[C@H](COC(=O)/C=C/c3ccc(O)c(O)c3)[C@@H](O)[C@H](O)[C@H]2O)ccc1O (single isomer, unassigned) [Peak 12, Peonidin 3-(6", 6"'-dicaffeoyl sophoroside)-5-glucoside] | – | – | – | 유의적인 세포 보호 효과를 보였다 |
| Peonidin 3-p-hydroxybenzoyl sophoroside-5-glucoside [Peak 4] | – | – | 유의적으로 저해하였다 | – |

— KR20140065554A, “안토시아닌을 포함하는 항염용 조성물” (대한민국(농촌진흥청장), priority 2012, dated 2014)
